Source: US6207669A, “Bicyclic heteroaromatic compounds as protein tyrosine kinase inhibitors” (Glaxo Wellcome Inc., priority 1996, dated 2001)
Structures can show the parent of a compound that is named as a salt. Where two headings read alike, the source gives them in different places.

Experiments:
[1] = molecular target: T1, EGFr isolated from solubilised A431 cell membranes (Homo sapiens, UniProt P00533); assay: Substrate phosphorylation assay, EGFr; type: biochemical; conditions: 30 minutes, room temperature, ATP and peptide at Km
T1 construct: EGFr isolated from solubilised A431 cell membranes; endogenous in cells; host or cells: A431 cells (solubilised membranes)
Description: (§1) The substrate phosphorylation assays use baculovirus expressed, recombinant constructs of the intracellular domains of c-erbB-2 and c-erbB4 that are constitutively active and EGFr isolated from solubilised A431 cell membranes. The method measures the ability of the isolated enzymes to catalyse the transfer of the γ-phosphate from ATP onto tyrosine residues in a biotinylated synthetic peptide (Biotin-GluGluGluGluTyrPheGluLeuVal). The enzyme is incubated for 30 minutes, at room temperature, with 10 mM […], ATP and peptide at Km concentrations, and test compound (diluted from a 5 mM stock in DMSO, final DMSO concentration is 2%) in 40 mM HEPES buffer, pH 7.4. The reaction is stopped by the addition of EDTA (final concentration 0.15 mM) and a sample is transferred to a streptavidin-coated 96-well plate. The plate is washed and the level of phosphotyrosine on the peptide is determined using a Europium-labelled antiphosphotyrosine antibody and quantified with a time-resolved fluorescence technique. The results are shown in Table 1 as the IC50 values in nM.

[2] = molecular target: T2, c-erbB-2 (baculovirus expressed, recombinant intracellular domain) (Homo sapiens, UniProt P04626); assay: Substrate phosphorylation assay, c-erbB-2; type: biochemical; conditions: 30 minutes, room temperature, ATP and peptide at Km
T2 construct: recombinant constructs of the intracellular domains of c-erbB-2 and c-erbB4 that are constitutively active; made in house
Description: The substrate phosphorylation assays use baculovirus expressed, recombinant constructs of the intracellular domains of c-erbB-2 and c-erbB4 that are constitutively active and EGFr isolated from solubilised A431 cell membranes. […] The reaction is stopped by the addition of EDTA (final concentration 0.15 mM) and a sample is transferred to a streptavidin-coated 96-well plate. The plate is washed and the level of phosphotyrosine on the peptide is determined using a Europium-labelled antiphosphotyrosine antibody and quantified with a time-resolved fluorescence technique. The results are shown in Table 1 as the IC50 values in nM.

[3] = molecular target: T3, c-erbB4 (baculovirus expressed, recombinant intracellular domain) (Homo sapiens, UniProt Q15303); assay: Substrate phosphorylation assay, c-erbB4; type: biochemical; conditions: 30 minutes, room temperature, ATP and peptide at Km; read-out: Substrate Phosphorylation erbB-4 IC50
T3 construct: recombinant constructs of the intracellular domains of c-erbB-2 and c-erbB4 that are constitutively active; made in house
Description: as §1

[4] = tested on: HB4a cell line transformed by over-expression of c-erbB-2; assay: Cell proliferation assay, HB4a erbB-2; type: cell-based; conditions: Homo sapiens, 96 h, 4 days, methylene blue staining
Description: (§2) The cell proliferation assay uses an immortalised human breast epithelial cell line (HB4a) which has been transformed by over-expression of c-erbB-2. Growth of these cells in low serum is dependent upon the c-erbB-2 tyrosine kinase activity. […] Cells are plated at 3000/well in 96-well plates in […] medium and allowed to attach overnight. test compound is added in 0.1 ml medium, with a final concentration of 0.5% DMSO, and the plates incubated for 4 days at 37° C. The cells are then examined microscopically for evidence of morphological detransformation and cell mass is estimated by staining with methylene blue and measuring the absorbance at 620 nm. […] Activity against a range of naturally occurring EGFr or c-erbB-2 over-expressing human tumour cell lines (BT474-breast, HN5-head and neck, N87 gastric and Calu3-lung) is assessed with selected compounds by the same methodology.

[5] = tested on: HB4a cell line transfected with ras; assay: Cell proliferation assay, HB4a ras; type: cell-based; conditions: Homo sapiens, 96 h, 4 days, methylene blue staining, general toxicity comparison
[6] = tested on: BT474-breast tumour cell line; assay: Cell proliferation assay, BT474; type: cell-based; conditions: Homo sapiens, BT-474, 96 h; 4 days, methylene blue staining
Description: as §2

[7] = tested on: N87 gastric tumour cell line; assay: Cell proliferation assay, N87; type: cell-based; conditions: Homo sapiens, 96 h; 4 days, methylene blue staining
Description: as §2

[8] = tested on: Calu3-lung tumour cell line; assay: Cell proliferation assay, Calu3; type: cell-based; conditions: Homo sapiens, Calu-3, 96 h; 4 days, methylene blue staining
Description: as §2

[9] = tested on: HN5-head and neck tumour cell line; assay: Cell proliferation assay, HN5; type: cell-based; conditions: Homo sapiens, 96 h, read-out: Cell Proliferation HN5 IC50
Description: as §2

[10] = 4 days, methylene blue staining

T1 sequence (P00533 25-1210): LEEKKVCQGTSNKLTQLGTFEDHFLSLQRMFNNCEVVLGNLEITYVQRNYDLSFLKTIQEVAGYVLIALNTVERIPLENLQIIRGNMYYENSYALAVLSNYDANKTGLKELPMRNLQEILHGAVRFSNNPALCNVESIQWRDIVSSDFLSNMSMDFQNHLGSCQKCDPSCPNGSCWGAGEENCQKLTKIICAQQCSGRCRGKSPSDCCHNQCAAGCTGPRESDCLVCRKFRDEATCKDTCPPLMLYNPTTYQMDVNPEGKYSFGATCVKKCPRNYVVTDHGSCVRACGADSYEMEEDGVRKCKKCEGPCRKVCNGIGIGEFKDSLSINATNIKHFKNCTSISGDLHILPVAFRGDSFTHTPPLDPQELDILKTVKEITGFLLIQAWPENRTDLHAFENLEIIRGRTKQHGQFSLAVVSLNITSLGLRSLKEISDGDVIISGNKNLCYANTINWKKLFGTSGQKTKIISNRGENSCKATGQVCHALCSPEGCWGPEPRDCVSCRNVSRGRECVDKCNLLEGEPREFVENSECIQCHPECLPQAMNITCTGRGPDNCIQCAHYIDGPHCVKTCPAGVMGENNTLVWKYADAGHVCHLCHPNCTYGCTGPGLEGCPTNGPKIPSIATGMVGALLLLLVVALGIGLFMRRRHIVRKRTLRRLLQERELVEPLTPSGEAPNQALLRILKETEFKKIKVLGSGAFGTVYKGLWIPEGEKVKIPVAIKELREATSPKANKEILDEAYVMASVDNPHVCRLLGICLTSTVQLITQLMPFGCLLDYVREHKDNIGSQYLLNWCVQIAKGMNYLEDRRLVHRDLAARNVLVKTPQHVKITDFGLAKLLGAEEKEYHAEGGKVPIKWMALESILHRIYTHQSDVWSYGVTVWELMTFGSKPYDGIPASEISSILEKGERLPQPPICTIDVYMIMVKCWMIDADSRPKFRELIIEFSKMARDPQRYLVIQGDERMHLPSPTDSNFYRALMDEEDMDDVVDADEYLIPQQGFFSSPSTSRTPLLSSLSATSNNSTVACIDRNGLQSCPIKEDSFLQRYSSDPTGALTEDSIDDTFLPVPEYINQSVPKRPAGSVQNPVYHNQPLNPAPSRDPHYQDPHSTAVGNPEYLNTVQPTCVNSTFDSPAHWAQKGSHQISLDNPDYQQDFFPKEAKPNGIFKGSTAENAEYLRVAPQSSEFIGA
T3 sequence (Q15303 676-1308 limits assumed): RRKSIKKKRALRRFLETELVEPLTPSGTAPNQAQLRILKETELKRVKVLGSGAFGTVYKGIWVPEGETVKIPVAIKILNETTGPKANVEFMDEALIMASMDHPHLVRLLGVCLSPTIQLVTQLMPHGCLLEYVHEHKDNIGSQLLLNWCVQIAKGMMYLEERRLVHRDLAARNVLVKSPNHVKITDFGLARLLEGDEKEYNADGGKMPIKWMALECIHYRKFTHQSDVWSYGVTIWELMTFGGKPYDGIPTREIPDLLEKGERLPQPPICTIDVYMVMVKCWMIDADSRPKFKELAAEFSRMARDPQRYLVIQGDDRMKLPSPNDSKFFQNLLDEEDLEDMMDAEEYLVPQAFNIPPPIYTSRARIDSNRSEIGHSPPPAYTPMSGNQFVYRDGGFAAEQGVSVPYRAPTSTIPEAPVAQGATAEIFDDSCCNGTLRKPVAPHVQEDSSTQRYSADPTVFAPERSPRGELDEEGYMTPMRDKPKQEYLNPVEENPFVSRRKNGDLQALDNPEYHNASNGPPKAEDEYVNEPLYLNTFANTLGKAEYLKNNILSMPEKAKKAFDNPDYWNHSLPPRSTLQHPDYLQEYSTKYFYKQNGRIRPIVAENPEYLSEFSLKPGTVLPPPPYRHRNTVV
T2 sequence (P04626 676-1255 limits assumed): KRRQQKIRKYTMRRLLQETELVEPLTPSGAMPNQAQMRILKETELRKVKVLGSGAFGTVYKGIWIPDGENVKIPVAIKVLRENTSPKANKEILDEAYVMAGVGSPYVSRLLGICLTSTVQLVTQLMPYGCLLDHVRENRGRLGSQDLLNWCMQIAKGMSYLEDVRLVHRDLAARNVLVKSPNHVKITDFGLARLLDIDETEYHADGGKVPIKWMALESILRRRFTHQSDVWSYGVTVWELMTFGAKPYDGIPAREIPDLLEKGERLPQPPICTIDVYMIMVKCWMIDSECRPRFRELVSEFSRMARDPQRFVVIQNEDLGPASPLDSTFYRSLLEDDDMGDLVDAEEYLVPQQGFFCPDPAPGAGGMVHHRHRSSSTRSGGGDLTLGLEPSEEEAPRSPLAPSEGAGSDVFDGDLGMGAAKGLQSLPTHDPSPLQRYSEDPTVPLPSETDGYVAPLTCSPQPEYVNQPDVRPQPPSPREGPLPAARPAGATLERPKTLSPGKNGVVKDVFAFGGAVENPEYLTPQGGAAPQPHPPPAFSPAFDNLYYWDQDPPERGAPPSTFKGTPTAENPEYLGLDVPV

| SMILES | IC50 [1] | IC50 [2] | IC50 [3] | IC50 [4] | IC50 [5] | IC50 [6] | IC50 [7] | IC50 [8] | IC50 [9, 10] | IC50 [9] |
| --- | --- | --- | --- | --- | --- | --- | --- | --- | --- | --- |
| c1ccc(COc2ccc(Nc3ncnc4cnc(-c5ccc(CNc6cccnc6)o5)cc34)cc2)cc1 [Example 5, (4-Benzyloxy-phenyl)-(6-(5-(pyridin-3-ylaminomethyl)-furan-2-yl)-pyrido[3,4-d]pyrimidin-4-yl)-amine] | 260 nM | 110 nM | 1600 nM | 5600 nM | 8200 nM | – | – | – | – | – |
| CN(C)Cc1ccc(-c2cc3c(Nc4ccc(OCc5ccccc5)cc4)ncnc3cn2)o1 [Example 6, (4-Benzyloxy-phenyl)6-(5-(dimethyyaminomethyl)-furan-2-yl)pyrido[3,4-d]pyrimidin4-yl)-amine hydrochloride] | 380 nM | 98 nM | 2400 nM | 1500 nM | 2200 nM | – | – | – | – | – |
| CS(=O)(=O)NCCNCc1ccc(-c2cc3c(Nc4ccc(OCc5ccccc5)cc4)ncnc3cn2)o1 [Example 17, N-(2-((5-(4-(4-Benzyloxy-phenylamino)-pyrido[3,4-d]pyrimidin-6-yl)-furan-2-ylmethyl)-amino)-ethyl)-methanesulphonamide hydrochloride] | – | 29 nM | 760 nM | 250 nM | 3500 nM | 100 nM | 150 nM | 3700 nM | 720 nM | – |
| NC(=O)[C@H]1CCCN1Cc1ccc(-c2cc3c(Nc4ccc(OCc5ccccc5)cc4)ncnc3cn2)o1 [Example 13, (2R)-1-{5-[4-(4-Benzyloxy-phenylamino)-pyrido[3,4-d]pyrimidin-6-yl]-furan-2-ylmethyl}pyrrolidine-2-carboxalic acid amide hydrochloride] | – | 14 nM | 480 nM | 170 nM | > 50000 nM | – | – | – | – | 350 nM |
| CN(CCS(C)(=O)=O)Cc1ccc(-c2cc3c(Nc4ccc(OCc5ccccc5)cc4)ncnc3cn2)o1 [Example 15] | – | 30 nM | 1500 nM | 300 nM | 8500 nM | – | – | – | – | – |
| COC(=O)CNCc1ccc(-c2cc3c(Nc4ccc(OCc5ccccc5)cc4)ncnc3cn2)o1 [Example 4, ((5-4-(4-Benzloxy-phenylamino)-pyrido[3,4-d]pyrimidin-6-yl)-furan-2-ylmethyl)-amino)-acetic acid methyl ester hydrochloride] | 130 nM | 13 nM | 530 nM | 29000 nM | 16000 nM | – | – | – | – | – |
| NC(=O)[C@@H]1CCCN1Cc1ccc(-c2cc3c(Nc4ccc(OCc5ccccc5)cc4)ncnc3cn2)o1 [Example 7, (2S)-1-(5-(4-(4-Benzyloxy-phenylamino)-pyrido[3,4-d]pyrimidine-6-yl)-furan-2-ylmethyl)-pyrrolidine-2-carboxylic acid amide hydrochloride] | 79 nM | 44 nM | 84 nM | 410 nM | 15000 nM | – | – | – | – | – |
| CN(C)C(=O)[C@@H]1CCCN1Cc1ccc(-c2cc3c(Nc4ccc(OCc5ccccc5)cc4)ncnc3cn2)o1 [Example 16, (2S)-1-{-5-[4-(4-Benzyloxy-phenylamino)-pyrido[3,4-d]pyrimidin-6-yl]-furan-2-ylmethyl}-pyrrolidine-2-carboxylic acid dimethylamide] | – | 280 nM | 2800 nM | 2100 nM | 7900 nM | – | 670 nM | – | 3300 nM | – |
| CN(CC(N)=O)Cc1ccc(-c2cc3c(Nc4ccc(OCc5ccccc5)cc4)ncnc3cn2)o1 [Example 8, 2-((5-(4-(4-Benzyloxy-phenylamino)-pyrido[3,4-d]pyrimidin-6-yl)-furan-2-ylmethyl)-methylamino)-acetamide] | 720 nM | 11 nM | 160 nM | 100 nM | 41000 nM | 380 nM | 60 nM | 340 nM | – | 350 nM |
| CC(=O)NCCNCc1ccc(-c2cc3c(Nc4ccc(OCc5ccccc5)cc4)ncnc3cn2)o1 [Example 9] | 95 nM | 7 nM | 1000 nM | 730 nM | 3900 nM | – | – | – | – | – |
| CN1CCN(Cc2ccc(-c3cc4c(Nc5ccc(OCc6ccccc6)cc5)ncnc4cn3)o2)CC1 [Example 2, (4-Benzyloxy-phenyl)-(6-(5-(4-methyl-piperazin-1-ylmethy)-furan-2-yl)pyrido[3,4-d]pyrimidin-4-yl)-amine] | 170 nM | 60 nM | 760 nM | 430 nM | 2100 nM | – | – | – | – | – |
| c1ccc(COc2ccc(Nc3ncnc4cnc(-c5ccc(CN6CCCCC6)o5)cc34)cc2)cc1 [Example 1, (4-Benzyloxy-phenyl)-(6-(5-piperidin-1-ylmethyl)-furan-2-yl)-pyrido3,4-d]pyrimidin-4-yl)-amine hydrochloride] | 170 nM | 70 nM | 1400 nM | – | – | – | – | – | – | – |
| O=C(O)CNCc1ccc(-c2cc3c(Nc4ccc(OCc5ccccc5)cc4)ncnc3cn2)o1 [Example 11, ((5-(4-(4-Benzyloxy-phenylamino)-pyrido[3,4-d]pyrimidine-6yl)-furan-2-ylmethyl)-amino)-acetic acid hydrochloride] | 88 nM | 19 nM | 450 nM | 50000 nM | 5900 nM | – | – | – | – | – |
| OCc1ccc(-c2cc3c(Nc4ccc(OCc5ccccc5)cc4)ncnc3cn2)o1 [Example 12, (5-4-(4-(4-Benzyloxy-phenylamino)-pyrido[3,4-d]pyrimidin-6-yl)-furan-2-yl)-methanol hydrochloride] | 31 nM | 4 nM | 490 nM | 440 nM | 7600 nM | – | – | – | – | 460 nM |
| C[S+]([O-])CCNCc1ccc(-c2cc3c(Nc4ccc(OCc5ccccc5)cc4)ncnc3cn2)o1 (stereo not drawn) [Example 10, (4-Benzyloxy-phenyl)-(6-(5-((2-methanesulphinyl-ethylamino)-methyl)-furan-2-yl)-pyrido[3,4-d]pyrimidin-4-yl)-amine] | 140 nM | 22 nM | – | 250 nM | 8700 nM | – | – | – | – | – |
| CS(=O)(=O)CCNCc1ccc(-c2cc3c(Nc4ccc(OCc5ccccc5)cc4)ncnc3cn2)o1 [Example 3, 4-Benzyloxy-phenyl)-(6-(5-((2-methanesulphonyl-ethylamino)methyl)-furan-2-yl-pyrido[3,4-d]pyrimidin-4-yl)-amine hydrochloride] | 140 nM | 10 nM | 190 nM | 500 nM | 31000 nM | – | – | – | – | – |
| CS(=O)(=O)CCCNCc1ccc(-c2cc3c(Nc4ccc(OCc5ccccc5)cc4)ncnc3cn2)o1 [Example 14] | – | 420 nM | 3900 nM | – | – | – | – | – | – | – |
